According to US20160199343A1, “COMPOUNDS AND FORMULATIONS FOR THE TREATMENT OF WOUNDS” (NITTO DENKO CORPORATION, priority 2013, published 2016):

How the values were obtained:
[1] = test system: infected and other superficial wounds; settings: 120 patients, wounds treated with sugar; cited from earlier work
[2] = test system: S. aureus; settings: cited from earlier work
[3] = test system: 3T3 mouse fibroblast; assay: In vitro scratch assay; format: cell-based; settings: 3000 μM in culture medium, followed up to 12 hrs post scratching, linear regression
Experimental: The compounds of Formula (1) and (1a) were also tested by means of an in vitro model of wound healing. An in vitro scratch assay was performed as was described in Nature Protocols by Liang et al., 2007. In short, 3T3 mouse fibroblast were seeded onto a fibronectin coated 6-well plate and the confluent monolayers were scratched with a 200 μl pipette tip to obtain a linear gap in the monolayer. The closure of this monolayer was then followed up to 12 hrs post scratching. In order to evaluate the effect of the compound (isosorbide, isoidide and isomannide) either 30 μM or 3000 μM of the test compound were added to the culture medium. The increased dose was applied as the model cannot be entirely related to the in vivo situation as the closure time of this model is considerably faster as the in vivo wound (<18 hrs vs. weeks, resp.). The basic medium comprised DMEM, FCS 5%, HEPES 20 mM, L-glutamine 4 mM and 1% pen/strep. Hereto either nothing or the aforementioned concentrations of test compounds were added.

[4] = test system: full-thickness skin wounds; assay: Mouse full-thickness skin wound model, scar analysis by histology; format: in vivo; settings: for reduction in scar index: full thickness excisional wounds in mice, same application formulation, versus control group
Experimental: The mouse model used here can be considered one of the simplest and standard murine models for investigating scar formation and wound healing.
Mice were weighed and then anaesthetized with 5% isoflurane in air for induction and then administered 2.5-3% of isoflurane in air for the remainder of the procedure. The animals were administered Tramal (Tramadol) intraperitoneally for analgesia at a 0.1 mg/kg dose. Before surgery the back of the mice was shaved and disinfected with isobetadine soap, rinsed with water and then swabbed with iodium alcohol.
The back of the mice was shaved and four full-thickness skin wounds were performed by cutting the folded skin on the back of the mice with a 7.5 mm×3 mm elliptical biopsy punch (Elliptical Excisional Instrument, Acuderm Inc.). The skin on the back was raised and folded at the level of the vertebral column by using the thumb and the index finger. The folded skin was then placed on a wood tongue depressor with the animal laying on one side and two wounds were performed through the folded skin by using an elliptical biopsy punch (Elliptical Excisional Instrument, Acuderm Inc.), resulting in four wounds on the back skin: two on the right of the vertebral column and two on the left (FIG. 9). The epidermis, the dermis and the fat tissue in the wound was carefully removed without touching other tissues. The wounds were then immediately treated with topical application of either the hydrogel or the ointment (glycerol+HEPES buffer) formulation containing the active substance (T1 and T2) or vehicle (Tv) and one wound was (Ts) left untreated (FIG. 9). The position of the wounds was randomised according to a list. The wound site was then covered with OP-Film (Somed International, the Netherlands) (FIG. 9). The borders were then fixed with cyanoacrylate glue (Loctite).
This model is identical to the excisional model above except that the wounds were closed with three sutures.
The treatment was repeated at the day 1, 2, 3 and 4 post-surgery for a total of 5 treatments in the first 5 days of healing. At each time point the mice were briefly anaesthetized with isoflurane and a new dose of ointment was injected through the film onto the wound, after which the animal was left to recover. At day 5 all films were removed.
After 14 days the mice were sacrificed under isoflurane anaesthesia by cervical dislocation to harvest the regenerated tissue. At sacrifice the mice were weighed and a gross necropsy was performed during which the following tissues are harvested:
Skin samples were also taken. The back of the mouse was carefully shaved paying careful attention to not touch the wound area. […]
The extent of scarring was measured in accordance with the procedure set out by Khorasani et al (2011). […]

Row | Structure (SMILES) | curing rate [1] [%] | sugar solution concentration affecting complete in vitro growth of S. aureus [2] [g/100 g water] | effect on closure speed (reduction) [3] [%] | reduction in scar index [4] [%] | Scar index compared to Vehicle-treated / control group (statistics) ([4]; 1-way ANOVA with Dunnet's comparison, p<0.05) | Collagen organisation trend ([4]; mouse wounds, upon administration)
1 | OC[C@H]1O[C@@](CO)(O[C@H]2O[C@H](CO)[C@@H](O)[C@H](O)[C@H]2O)[C@@H](O)[C@@H]1O [sugar, sucrose] | 99.2 | 183 |  |  |  | 
2 | O[C@H]1CO[C@H]2[C@@H]1OC[C@@H]2O [Isoidide, 1,4:3,6-Dianhydro-D-iditol] |  |  | 27 | 44 |  | 
3 | O[C@@H]1CO[C@H]2[C@@H]1OC[C@@H]2O [Isosorbide] |  |  | 10 |  | significantly different from Control and Vehicle | increased values
4 | O[C@@H]1CO[C@H]2[C@@H]1OC[C@H]2O [Isomannide, 1,4:3,6-dianhydro-D-mannitol] |  |  | 23 | 38 |  | 
